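Briefly, cells in 96-well plates were exposed to five compound concentrations for 48 h, and endpoints were estimated by linear interpolation. Abbreviation: GI50, concentration required for 50% inhibition of growth.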 Active and inactive are the calls of the source. Rule as the data show it: active = GI50 up to about 1.1 µM and inactive = higher.
How the values were obtained:
Test in all cases: NCI anticancer screen, dose series, 48 h
786-0 = system: 786-0
A549 = system: A549
HT-29 = system: HT-29
MCF7 = system: MCF7
MDA-MB-231 = system: MDA-MB-231
MDA-MB-435 = system: MDA-MB-435
NCI-H226 = system: NCI-H226
NCI-H23 = system: NCI-H23
OVCAR-5 = system: OVCAR-5
RPMI-8226 = system: RPMI-8226
RXF 393 = system: RXF 393
SF-268 = system: SF-268
SF-295 = system: SF-295
SK-MEL-5 = system: SK-MEL-5
SK-OV-3 = system: SK-OV-3
SN12C = system: SN12C
SW-620 = system: SW-620
UO-31 = system: UO-31
CAKI-1 = system: CAKI-1
HCT-116 = system: HCT-116

Measured: GI50

C=CCC(SC)C1=C(C)C(=O)c2ccccc21 (stereo not given)
inactive: 786-0 > 10 µM | A549 > 10 µM | HT-29 > 10 µM | MCF7 > 10 µM | MDA-MB-231 > 10 µM | MDA-MB-435 > 10 µM | NCI-H226 > 10 µM | NCI-H23 > 10 µM | OVCAR-5 > 10 µM | RPMI-8226 > 10 µM | RXF 393 > 10 µM | SF-268 > 10 µM | SF-295 > 10 µM | SK-MEL-5 > 10 µM | SK-OV-3 > 10 µM | SN12C > 10 µM | SW-620 > 10 µM | UO-31 > 10 µM

CC1=NN(C(=O)CSc2nnc(SCC(=O)N3N=C(C)CC3(O)c3ccccc3)s2)C(O)(c2ccccc2)C1 (stereo not given)
inactive: 786-0 43.3 µM | A549 48.4 µM | CAKI-1 45.8 µM | HCT-116 30.9 µM | MCF7 35.1 µM | MDA-MB-231 95.5 µM | MDA-MB-435 51.3 µM | NCI-H23 34 µM | OVCAR-5 82.4 µM | RPMI-8226 15.5 µM | RXF 393 24.9 µM | SF-268 12.8 µM | SF-295 42 µM | SK-MEL-5 28.2 µM | SK-OV-3 > 100 µM | SN12C 61.7 µM | SW-620 > 100 µM | UO-31 22.3 µM

COc1ccccc1N1C(=O)CSC1c1c[nH]c2ccccc12 (stereo not given)
inactive: 786-0 > 100 µM | A549 > 100 µM | HCT-116 > 100 µM | HT-29 > 100 µM | MCF7 > 100 µM | MDA-MB-231 3.69 µM | MDA-MB-435 > 100 µM | NCI-H226 > 100 µM | NCI-H23 > 100 µM | OVCAR-5 > 100 µM | RPMI-8226 > 100 µM | RXF 393 > 100 µM | SF-268 42.8 µM | SF-295 > 100 µM | SK-MEL-5 > 100 µM | SK-OV-3 > 100 µM | SN12C > 100 µM | SW-620 > 100 µM | UO-31 58.1 µM

COC[C@@H](/N=C/c1ccc([N+](=O)[O-])cc1)C(C)C
inactive: 786-0 > 100 µM | A549 > 100 µM | CAKI-1 > 100 µM | HCT-116 26 µM | HT-29 > 100 µM | MCF7 95.1 µM | MDA-MB-231 3.24 µM | MDA-MB-435 > 100 µM | NCI-H23 > 100 µM | OVCAR-5 > 100 µM | RPMI-8226 25.2 µM | RXF 393 > 100 µM | SF-268 > 100 µM | SF-295 > 100 µM | SK-MEL-5 > 10 µM | SK-OV-3 > 100 µM | SN12C > 100 µM | SW-620 > 100 µM | UO-31 > 100 µM

COc1ccc2c3c1OC1c4[nH]c5ccccc5c4CC4(O)C(C2)N(C)CCC314 (stereo not given)
inactive: 786-0 18.7 µM | A549 59.2 µM | CAKI-1 35.3 µM | HCT-116 32.3 µM | HT-29 22 µM | MCF7 21.8 µM | MDA-MB-231 25.5 µM | MDA-MB-435 18.1 µM | NCI-H23 > 100 µM | OVCAR-5 71.6 µM | RPMI-8226 19.3 µM | RXF 393 20 µM | SF-268 36.6 µM | SF-295 82.4 µM | SK-MEL-5 15.2 µM | SK-OV-3 > 100 µM | SN12C 56.6 µM | SW-620 39.1 µM | UO-31 13.6 µM

O=c1c2ccccc2nc(N/N=C/c2ccccc2O)n1-c1ccccc1
inactive: 786-0 1.53 µM | A549 4.8 µM | CAKI-1 5.62 µM | HCT-116 2.88 µM | HT-29 4.55 µM | MCF7 3.33 µM | MDA-MB-231 4.59 µM | MDA-MB-435 4.71 µM | NCI-H226 5.41 µM | NCI-H23 6.21 µM | OVCAR-5 7.18 µM | RXF 393 17.1 µM | SF-268 2.13 µM | SF-295 6.4 µM | SK-MEL-5 4.56 µM | SK-OV-3 13.8 µM | SN12C 6.24 µM | SW-620 5.75 µM | UO-31 2.54 µM

COC(=O)[C@H]1NC(=O)CCSSC1(C)C
inactive: 786-0 > 100 µM | A549 > 100 µM | CAKI-1 > 100 µM | HCT-116 > 100 µM | HT-29 > 100 µM | MCF7 > 100 µM | MDA-MB-231 > 100 µM | MDA-MB-435 > 100 µM | NCI-H226 > 100 µM | NCI-H23 > 100 µM | OVCAR-5 > 100 µM | RPMI-8226 > 100 µM | RXF 393 > 100 µM | SF-268 > 100 µM | SF-295 > 100 µM | SK-MEL-5 > 100 µM | SN12C > 100 µM | SW-620 > 100 µM | UO-31 > 100 µM

Cc1ccc(NC2=CC(=O)C(NO)c3ccccc32)cc1 (stereo not given)
inactive: 786-0 5.16 µM | A549 3.09 µM | CAKI-1 2.5 µM | HCT-116 2.47 µM | HT-29 4.35 µM | MCF7 2.66 µM | MDA-MB-231 2.21 µM | MDA-MB-435 1.89 µM | NCI-H226 19.9 µM | NCI-H23 1.64 µM | OVCAR-5 8.59 µM | RXF 393 2.62 µM | SF-268 3.32 µM | SF-295 3.98 µM | SK-MEL-5 1.49 µM | SK-OV-3 10.8 µM | SN12C 3.36 µM | SW-620 3.24 µM | UO-31 2.82 µM

Source: ChEMBL document CHEMBL1201862, “PubChem BioAssay data set” (2004)
